Patent US11096942B2, “Heterocyclic compounds and uses thereof” (Celgene CAR LLC, priority 2010, dated 2021)
Where two headings read alike, the source gives them in different places.

Columns and labels:
[1] = target: EGFR L858R/T790M (H1975 cells) (Homo sapiens (Human), UniProt P00533, L858R/T790M); experiment: Phospho-EGFR signaling immunoblot (1 hr), H1975 cells; type: cell-based; conditions: WT EGFR (A431) vs H1975
Description: (§1) A431 human epidermoid carcinoma, H1975 human NSCLC and HCC827 human NSCLC adenocarcinoma cells were obtained from the American Type Culture Center (Manassas, Va.). A431 cells were grown in DMEM (Invitrogen, Carlsbad, Calif.) supplemented with 10% FBS (HyClone, South Logan, Utah) and 1% Penicillin-Streptomycin (P/S, Lonza, Walkersville, Md.).
(§2) All primary antibodies were obtained from Cell Signaling (Danvers, Mass.) and used at 1:1000. Secondary antibodies were used at 1:10,000. Goat anti-mouse IgG IRDye 800CW antibody was obtained from LiCor Biosciences (Lincoln, Nebr.) and goat anti-rabbit IgG Alexa Fluor 680 was obtained from Invitrogen.
(§3) Cells were grown in 12-well plates (Corning, Coring, N.Y.) to 90% confluence and then incubated in low-serum (0.1% FBS) media for 16-18 hr. […] A431 cells were then stimulated with 50 ng/ml EGF (Peprotech, Rocky Hill, N.J.) for 15 min. After treatment, cell monolayers were washed with cold PBS (Invitrogen) and immediately lysed by scrapping into 60 uL cold Cell Extraction Buffer (Invitrogen) supplemented with Complete Protease inhibitors (Roche, Indianapolis, Ind.) and PhosphoSTOP (Roche) phosphatase inhibitors.
(§4) Phospho-protein signals were quantitated using Odyssey Infrared Imaging (Li-Cor Biosciences).
(§5) To assess phosphor-EGFR signaling, blots were probed with rabbit anti-Phospho-EGFR (Y1068) and mouse total anti-EGFR antibodies. Phospho-EGFR signal was normalized to total EGFR expression for each sample. […] Normalized data was fitted using a sigmoidal curve analysis program (Graph Pad Prism version 5) with variable Hill slope to determine the EC50 values.

[2] = target: EGFR delE746-A750 (HCC827 cells) (Homo sapiens (Human), UniProt P00533, DEL746-750); experiment: Phospho-EGFR signaling immunoblot (1 hr), HCC827 cells; type: cell-based; conditions: WT EGFR (A431) vs HCC827
Description: as §1, §2, §3, §4, §5

[3] = test system: H1975 cells (EGFR L858R/T790M); experiment: Cell proliferation (CellTiter Glo, 72 hr), H1975 cells; type: cell-based, human
Description: as §1
(§6) Cells were plated in Growth Media supplemented with 5% FBS and 1% P/S at a density of 3,000 cells per well in 96 well tissue culture plates (Corning). […] Growth inhibition (GI50) values were determined by Graph Pad Prism.

[4] = test system: HCC827 cells (EGFR delE746-A750); experiment: Cell proliferation (CellTiter Glo, 72 hr), HCC827 cells; type: cell-based, human
Description: as §1, §6

pEGFR in H1975 cells = pEGFR in H1975 cells (Homo sapiens (Human), UniProt P00533, L858R/T790M); experiment: Washout experiment in H1975 cells; type: cell-based; conditions: 500 nM for 1 hr, then washout
Description: Washout Experiment in H1975 Cells Containing EGFR Deletion/T790M Mutation
Cells were plated in Growth Media supplemented with 10% FBS and 1% P/S at a density of 2.0×10^5 cells per well in 12 well tissue culture plates. Cells were allowed to settle down for 4 hrs and then maintained in low-serum (0.1% FBS) media overnight.
The following morning the media was removed and the cells were treated with 500 nM test compound in low-serum media for 1 hr. The cells were washed free of compound 2× with PBS (Invitrogen). One set of cells were immediately lysed as indicated above as the 0 hr time point. The remaining cells were incubated with complete RPMI-1640 growth media (10% FBS) for 1, 3, 6 and 24 hr. For the first 1 hr, cells were washed 2× with PBS every 30 min. DMSO (0.5%) controls were collected at the 0, 3, 6 and 24 hr time points.

[5] = proliferation, WT EGFR (A431) vs H1975
[6] = proliferation, WT EGFR (A431) vs HCC827

Compound | Ratio WT/mutant [1] | Ratio WT/mutant [2] | Ratio WT/mutant [3, 5] | Ratio WT/mutant [4, 6] | Ratio WT/mutant [3] | Ratio WT/mutant [4] | duration of action after compound removal (pEGFR in H1975 cells)
C=CC(=O)Nc1cccc(Nc2nc(Nc3ccc(N4CCN(S(C)(=O)=O)CC4)cc3OC)ncc2C(F)(F)F)c1 [Compound I-17, N-(3-(2-(2-methoxy-4-(4-(methylsulfonyl)piperazin-1-yl)phenylamino)-5-(trifluoromethyl)pyrimidin-4-ylamino)phenyl)acrylamide] | >30 | >5 | >10 | >15 | – | – | –
C=CC(=O)Nc1cccc(Nc2nc(Nc3ccc(N4CCN(C(=O)C(C)(C)C)CC4)cc3OC)ncc2C(F)(F)F)c1 [Compound I-34, N-(3-(2-(2-methoxy-4-(4-pivaloylpiperazin-1-yl)phenylamino)-5-(trifluoromethyl)pyrimidin-4-ylamino)phenyl)acrylamide] | >35 | – | >5 | >50 | – | – | –
C=CC(=O)Nc1cccc(Oc2nc(Nc3ccc(N4CCOCC4)cc3OC)ncc2C(F)(F)F)c1 [Compound I-1, N-(3-(2-(2-methoxy-4-morpholinophenylamino)-5-(trifluoromethyl)pyrimidin-4-yloxy)phenyl)acrylamide] | >50 | – | >15 | >15 | – | – | –
C=CC(=O)Nc1cccc(Nc2nc(Nc3ccc(N4CCS(=O)(=O)CC4)cc3OC)ncc2C(F)(F)F)c1 [Compound I-49, N-(3-(2-(2-methoxy-4,4-dioxo-4-thiomorpholinophenylamino)-5-(trifluoromethyl)pyrimidin-4-ylamino)phenyl)acrylamide] | >20 | – | >10 | >25 | – | – | –
C=CC(=O)Nc1cccc(Nc2nc(Nc3ccc(N4CCN(S(C)(=O)=O)CC4)cc3OC)ncc2Cl)c1 [Compound I-41, N-(3-(5-chloro-2-(2-methoxy-4-(4-(methylsulfonyl)piperazin-1-yl)phenylamino)pyrimidin-4-ylamino)phenyl)acrylamide] | >1 | – | >1 | >20 | – | – | –
C=CC(=O)Nc1cccc(Oc2nc(Nc3ccc(N4CCN(C(=O)OC(C)(C)C)CC4)cc3OC)ncc2Cl)c1 [Compound I-46, tert-butyl 4-(4-(4-(3-acrylamidophenoxy)-5-chloropyrimidin-2-ylamino)-3-methoxyphenyl)piperazine-1-carboxylate] | >10 | >50 | – | – | >1 | >10 | –
C=CC(=O)Nc1cccc(Nc2nc(Nc3ccc(N4CCN(C(=O)CO)CC4)cc3OC)ncc2C(F)(F)F)c1 [Compound I-6, N-(3-(2-(4-(4-(2-hydroxyacetyl)piperazin-1-yl)-2-methoxyphenylamino)-5-(trifluoromethyl)pyrimidin-4-ylamino)phenyl)acrylamide] | >20 | – | >10 | >40 | – | – | –
C=CC(=O)Nc1cccc(Nc2nc(Nc3ccc(N4CCCN(C(C)=O)CC4)cc3OC)ncc2C(F)(F)F)c1 [Compound I-7, N-(3-(2-(4-(4-acetyl-1,4-diazepan-1-yl)-2-methoxyphenylamino)-5-(trifluoromethyl)pyrimidin-4-ylamino)phenyl)acrylamide] | >5 | – | >1 | >10 | – | – | –
C=CC(=O)Nc1cccc(Nc2nc(Nc3ccc(N4CCN(C(=O)CO)CC4)cc3OC)ncc2Cl)c1 [Compound I-12, N-(3-(5-chloro-2-(4-(4-(2-hydroxyacetyl)piperazin-1-yl)-2-methoxyphenylamino)pyrimidin-4-ylamino)phenyl)acrylamide] | >1 | – | >1 | >30 | – | – | –
C=CC(=O)Nc1cccc(Nc2nc(Nc3ccc(N4CCN(C(C)=O)[C@H](C(=O)OC)C4)cc3OC)ncc2C(F)(F)F)c1 [Compound I-48, (S)-methyl 1-acetyl-4-(4-(4-(3-acrylamidophenylamino)-5-(trifluoromethyl)pyrimidin-2-ylamino)-3-methoxyphenyl)piperazine-2-carboxylate] | >50 | – | >10 | >15 | – | – | –
C=CC(=O)Nc1cccc(Oc2nc(Nc3ccc(N4CCN(C(=O)CO)CC4)cc3OC)ncc2Cl)c1 [Compound I-3, N-(3-(5-chloro-2-(4-(4-(2-hydroxyacetyl)piperazin-1-yl)-2-methoxyphenylamino)pyrimidin-4-yloxy)phenyl)acrylamide] | >5 | – | >5 | >45 | – | – | –
C=CC(=O)Nc1cccc(Nc2nc(Nc3ccc(N4CCN(C(C)=O)CC4)cc3OC)ncc2Br)c1 [Compound I-40, N-(3-(2-(4-(4-acetylpiperazin-1-yl)-2-methoxyphenylamino)-5-bromopyrimidin-4-ylamino)phenyl)acrylamide] | >1 | – | >5 | >10 | – | – | –
C=CC(=O)Nc1cccc(Oc2nc(Nc3ccc(N4CCN(C(=O)NC)CC4)cc3OC)ncc2C(F)(F)F)c1 [Compound I-21, 4-(4-(4-(3-acrylamidophenoxy)-5-(trifluoromethyl)pyrimidin-2-ylamino)-3-methoxyphenyl)-N-methylpiperazine-1-carboxamide] | >5 | – | >1 | >20 | – | – | –
C=CC(=O)Nc1cccc(Nc2nc(Nc3ccc(N4CCN(C(C)=O)CC4)cc3OC)ncc2C(F)(F)F)c1 [Compound I-4, N-(3-(2-(4-(4-acetylpiperazin-1-yl)-2-methoxyphenylamino)-5-(trifluoromethyl)pyrimidin-4-ylamino)phenyl)acrylamide] | – | – | – | – | – | – | prolonged duration of action after compound removal
C=CC(=O)Nc1cccc(Oc2nc(Nc3ccc(N4CCN(S(C)(=O)=O)CC4)cc3OC)ncc2C(F)(F)F)c1 [Compound I-22, N-(3-(2-(2-methoxy-4-(4-(methylsulfonyl)piperazin-1-yl)phenylamino)-5-(trifluoromethyl)pyrimidin-4-yloxy)phenyl)acrylamide] | >35 | – | >10 | >35 | – | – | –
C=CC(=O)Nc1cccc(Nc2nc(Nc3ccc(N4CCOCC4)cc3OC(F)F)ncc2C(F)(F)F)c1 [Compound I-14, N-(3-(2-(2-(difluoromethoxy)-4-morpholinophenylamino)-5-(trifluoromethyl)pyrimidin-4-ylamino)phenyl)acrlamide] | >15 | >15 | >5 | >10 | – | – | –
C=CC(=O)Nc1cccc(Nc2nc(Nc3ccc(N4CCCN(C(=O)OC(C)(C)C)CC4)cc3OC)ncc2C(F)(F)F)c1 [Compound I-44, tert-butyl 4-(4-(4-(3-acrylamidophenylamino)-5-(trifluoromethyl)pyrimidin-2-ylamino)-3-methoxyphenyl)-1,4-diazpane-1-carboxylate] | >5 | – | >5 | >5 | – | – | –
